Reference: article PMC4414711 (Chemico-biological interactions, 2014)
Read-outs that look alike come from different tables or passages of the source.

Columns and labels:
AKR1C2 = target: T1, AKR1C2 (Homo sapiens, UniProt P52895)
T1 sequence (P52895 1-323): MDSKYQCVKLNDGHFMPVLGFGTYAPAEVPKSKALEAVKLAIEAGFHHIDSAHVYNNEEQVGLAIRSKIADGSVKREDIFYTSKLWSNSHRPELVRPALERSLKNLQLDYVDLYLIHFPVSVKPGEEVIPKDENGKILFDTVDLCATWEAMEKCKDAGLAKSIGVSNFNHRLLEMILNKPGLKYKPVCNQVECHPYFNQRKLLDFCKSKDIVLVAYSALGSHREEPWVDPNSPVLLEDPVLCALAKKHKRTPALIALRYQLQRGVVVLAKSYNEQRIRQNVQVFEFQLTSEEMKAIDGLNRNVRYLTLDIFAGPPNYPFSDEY

AKR1C3 = target: T2, AKR1C3 (Homo sapiens, UniProt P42330); conditions: for IC50 Ratio 1C2:1C3: selectivity, ratio of IC50 values AKR1C2 to AKR1C3
T2 sequence (P42330 1-323): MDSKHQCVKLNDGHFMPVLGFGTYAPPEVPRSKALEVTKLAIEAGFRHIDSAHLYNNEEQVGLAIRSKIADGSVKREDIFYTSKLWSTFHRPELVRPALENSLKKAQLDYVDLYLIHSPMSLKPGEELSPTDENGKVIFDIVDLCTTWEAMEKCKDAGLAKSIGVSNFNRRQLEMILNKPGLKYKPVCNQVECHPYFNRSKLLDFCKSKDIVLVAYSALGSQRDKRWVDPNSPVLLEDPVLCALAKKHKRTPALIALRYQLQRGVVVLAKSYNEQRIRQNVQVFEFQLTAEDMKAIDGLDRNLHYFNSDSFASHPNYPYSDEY

[1] = read-out: 1C2 IC50, recombinant AKR1C2, S-tetralol 15 μM (= Km), NADP+
[2] = read-out: 1C3 IC50, recombinant AKR1C3, S-tetralol 165 μM (= Km), NADP+

| Compound | IC50 (AKR1C2; [1]) [µM] | decrease of the inhibitory selectivity (AKR1C3; in comparison to compound 8) [fold] | IC50 (AKR1C3; [2]) [µM] | IC50 Ratio 1C2:1C3 (AKR1C3) | IC50 (AKR1C2) [µM] | IC50 (AKR1C3) [µM] | increase of the inhibitory selectivity (AKR1C3; in comparison to compound 8) [fold] | further decrease of inhibitory potency for AKR1C2 (AKR1C2; relative to compound 4) [fold] | further decrease of inhibitory potency for AKR1C3 (AKR1C3; relative to compound 4) [fold] |
| --- | --- | --- | --- | --- | --- | --- | --- | --- | --- |
| O=C(O)C=Cc1ccc(OC(=O)CCc2ccccc2)cc1 (mixture of isomers) [Compound 10, (Z/E)-3-(4-((3-phenylpropanoyl)oxy)phenyl)acrylic acid] | 25 | 1.7 | 2.3 | 11 | – | – | – | – | – |
| CC(C)(C)OC(=O)C=Cc1ccc(OC(=O)CCc2ccccc2)cc1 (mixture of isomers) [Compound 13, (Z/E)-tert-butyl 3-(4-(3-phenylpropanoyloxy)phenyl)acrylate] | 27 | – | 632 | 0.04 | – | – | – | – | – |
| CC(C)=CCc1cc(/C=C/C(=O)OC(C)(C)C)ccc1OC(=O)CCc1ccccc1 [Compound 7, tert-butyl(2E)-3-[3-(3-methylbut-2-en-1-yl)-4-[(3-phenylpropanoyl)oxy]phenyl]prop-2-enoate] | – | – | – | 0.3 | 153 | 607 | – | – | – |
| O=C(O)/C=C/c1ccc(OC(=O)CCc2ccccc2)cc1 [Compound 8, (2E)-3-prop-2-enoic acid] | 88 | – | 4.7 | 19 | – | – | – | – | – |
| O=C(O)/C=C/c1cccc(OC(=O)CCc2ccccc2)c1 [Compound 9, (E)-3-(3-((3-phenylpropanoyl)oxy)phenyl)acrylic acid] | – | – | – | 28 | 27 | 0.96 | 1.5 | – | – |
| O=C(O)/C=C/c1ccc(OC(=O)c2ccccc2)cc1 [Compound 11, (2E)-3-[4-(benzoyloxy)phenyl]prop-2-enoic acid] | – | – | – | 20 | 127 | 6.3 | – | – | – |
| O=C(O)/C=C/c1ccc(OC(=O)c2ccncc2)cc1 [Compound 12, (2E)-3-[4-(pyridine-4-carbonyloxy)phenyl]prop-2-enoic acid] | – | – | – | 1 | 88 | 68 | – | – | – |
| O=C(O)/C=C/c1ccc(O)cc1 [Compound 14, p-coumaric acid] | – | – | – | 7 | 1300 | 199 | – | – | – |
| O=C(O)/C=C/c1cccc(O)c1 [Compound 15, m-coumaric acid] | 389 | – | 86 | 5 | – | – | – | – | – |
| COc1cc(/C=C/C(=O)O)ccc1O [Compound 16, ferulic acid] | 421 | – | 21 | 20 | – | – | – | – | – |
| (2E)-3-(3,3-dimethyl-3,4-dihydro-2H-1-benzopyran-6-yl)prop-2-enoate [Compound 5] | 14 | – | 21 | 1 | – | – | – | 2 | 2 |
